Values joined by “and” are separate entries in the source; they are usually repeats but may differ in a detail not shown here. Equal entries are not always repeated. Where two headings read alike, the source gives them in different places.
How the values were obtained:
neuropathic pain = details: individually, maximum effect at 60 minutes post-treatment, cited from earlier work
[1] = tested on: dogs diagnosed with idiopathic epilepsy; assay: Efficacy of gabapentin vs phenobarbital against idiopathic epilepsy in dogs (seizure episodes, adverse effects); type: in vivo; details: for Seizure number per month prior to the study: baseline; for Seizure number per month prior to the study / Changes in the type of seizure / Clinical adverse effects observed / Seizure number per month after the study: individual dogs; for Seizure number per month after the study: monitored 3 months
Experimental: a) G0-E Group: treated with phenobarbital at dose of 2 mg/Kg of body weight, every 12 hours.
b) G1-E Study Group: treated with gabapentin of 10 mg/Kg of body weight, divided 3 times a day by oral administration.
c) G2-E Study Group: treated with gabapentin of 20 mg/Kg of body weight, divided 3 times a day by oral administration.
Patients were monitored for 3 consecutive months, quantifying seizure episodes for each of the patients, obtaining the following: […]

[2] = horses, cited from earlier work
[3] = reported in dogs; cited from earlier work
[4] = tested on: dogs with moderate to severe osteoarthritis; assay: Pain caused by osteoarthritis in dogs, Helsinki Chronic Pain Index questionnaire; type: in vivo; details: Medians±EE
Experimental: (§1) In addition to the tests performed for the treatment of epilepsy, the effect of gabapentin in the pain treatment in dogs caused by osteoarthritis was evaluated, 30 animals of race, age, weight and variable sex were used, with 3/5 of body condition and clinical and radiological signs from moderate to severe of osteoarthritis, according to the Bioarth scale. Two study groups were formed:
(§2) a) G0-D Group: treated with fluoxetine at dose of 1 mg/Kg of body weight, every 12 hours, orally.
(§3) b) G1-D Group: treated with gabapentin of 1.5-10 mg/Kg of body weight, every 12 hours, orally.
(§4) The dogs were monitored 8 consecutive weeks by applying the questionnaires of the Subjective Clinical Evaluation System, Liverpool Osteoarthritis in Dogs and the Helsinki Chronic Pain Index to the owners of the dogs, before and after administration of the treatments.
(§5) The results of the global observations made by the owners with the Helsinki Chronic Pain Index questionnaire expressed in Medians±EE are presented in Table 3. The Wilcoxon ranks test was performed using the SPSS Statistics program considering statistically significant values for a level of p<0.05.

[5] = horses; 5 mg/Kg oral; cited from earlier work
calf dehorning = details: gabapentin 15 mg/Kg oral, alone or with meloxicam; cited from earlier work
[6] = tested on: dogs with moderate to severe osteoarthritis; assay: Pain caused by osteoarthritis in dogs, Liverpool Osteoarthritis in Dogs questionnaire; type: in vivo; parameters: scale not given here; details: Medians±EE
Experimental: as §1, §2, §3, §4
as §5, with “Liverpool Osteoarthritis in Dogs” for “Helsinki Chronic Pain Index”

[7] = tested on: dogs with moderate to severe osteoarthritis; assay: Pain caused by osteoarthritis in dogs, Subjective Clinical Evaluation System; type: in vivo; details: for Subjective Clinical Evaluation System, global observations: Medians±EE; for Result for the pain treatment (different pain assessment questionnaires): dogs with osteoarthritis, oral, every 12 hours, 8 weeks
Experimental: as §1, §2, §3, §4
The Subjective Clinical Evaluation System includes the following evaluation points:
3) Mobility of the affected joint: (0) No limitation of movement and no crepitus is palpable, (1) slight decrease in range of motion (10-20%), no crepitus is palpable, (2) slight decrease in range of motion (10-20%) with palpable crepitation, (3) moderate decrease in range of motion (20-50%) and (4) severe decrease in range of motion (>50%) with palpable crepitus.
4) Hold the contralateral limb high: (0) quickly accept to raise the contralateral limb, (1) offer resistance to the contralateral limb elevation, but maintain its weight on the affected limb for more than one minute, (2) offer moderate resistance to the elevation of the contralateral limb and replaces it after 30 seconds, (3) it offers resistance to the elevation of the contralateral limb and replaces it after 10 seconds and (4) refuses to elevate the contralateral limb.
Statistically significant values were considered for a level of p<0.05.

cats [8] = details: for 10 and 12 days; cited from earlier work
dogs [9] = details: cited from earlier work
plasma proteins = details: cited from earlier work
cats [10] = details: cited from earlier work
dogs [11] = details: cited from earlier work; remark: listed apart in the source
horses = details: 2 g/12 h/IV for 8 days; cited from earlier work
[12] = G1-E, gabapentin 10 mg/Kg divided 3 times a day, oral
[13] = G2-E, gabapentin 20 mg/Kg divided 3 times a day, oral
[14] = G1-D, gabapentin 1.5-10 mg/Kg every 12 hours orally, WEEK 0
[15] = G1-D, gabapentin 1.5-10 mg/Kg every 12 hours orally, WEEK 1
[16] = G1-D, gabapentin 1.5-10 mg/Kg every 12 hours orally, WEEK 2
[17] = G1-D, gabapentin 1.5-10 mg/Kg every 12 hours orally, WEEK 3
[18] = G1-D, gabapentin 1.5-10 mg/Kg every 12 hours orally, WEEK 4
[19] = G1-D, gabapentin 1.5-10 mg/Kg every 12 hours orally, WEEK 5
[20] = G1-D, gabapentin 1.5-10 mg/Kg every 12 hours orally, WEEK 6
[21] = G1-D, gabapentin 1.5-10 mg/Kg every 12 hours orally, WEEK 7
[22] = G1-D, gabapentin 1.5-10 mg/Kg every 12 hours orally, WEEK 8
[23] = G0-D, fluoxetine 1 mg/Kg every 12 hours orally, WEEK 0
[24] = G0-D, fluoxetine 1 mg/Kg every 12 hours orally, WEEK 1
[25] = G0-D, fluoxetine 1 mg/Kg every 12 hours orally, WEEK 2
[26] = G0-D, fluoxetine 1 mg/Kg every 12 hours orally, WEEK 3
[27] = G0-D, fluoxetine 1 mg/Kg every 12 hours orally, WEEK 4
[28] = G0-D, fluoxetine 1 mg/Kg every 12 hours orally, WEEK 5
[29] = G0-D, fluoxetine 1 mg/Kg every 12 hours orally, WEEK 6
[30] = G0-D, fluoxetine 1 mg/Kg every 12 hours orally, WEEK 7
[31] = G0-D, fluoxetine 1 mg/Kg every 12 hours orally, WEEK 8
[32] = G0-E, phenobarbital 2 mg/Kg every 12 hours

CN1CC[C@]23c4c5ccc(O)c4O[C@H]2[C@@H](O)C=C[C@H]3[C@H]1C5 [morphine]
antihyperalgesic effect (neuropathic pain; morphine 3.2 mg/Kg subcutaneously): 51.7%

NCC1(CC(=O)O)CCCCC1 [Gabapentin]
Reduction of seizures ([1]; 10 mg/kg oral, month 3 of treatment, best result of the doses evaluated): significant reduction of seizures
Seizure number per month prior to the study [1, 12]: 11 and 4 and 5 (2×) and 8 and 10 and 6 and 1 and 3 and 9
Changes in the type of seizure [1, 12]: NONE (6×) and PARTIAL CONVULSIONS (4×)
Clinical adverse effects observed [1, 12]: NONE (9×) and LIGHT SEDATION
Seizure number per month after the study [1, 12]: 0 (7×) and RESCUED (2×) and 1
Seizure number per month prior to the study [1, 13]: 8 (3×) and 2 (2×) and 12 and 6 and 4 (2×) and 3
Changes in the type of seizure [1, 13]: PARTIAL CONVULSIONS (3×) and NONE (4×) and CLONIC TONIC (3×)
Clinical adverse effects observed [1, 13]: LIGHT SEDATION (3×) and NONE (6×) and SOMNOLENCE
Seizure number per month after the study [1, 13]: 2 (2×) and 0 (4×) and 1 (2×) and RESCUED and 3
half-life ([2]; 20 mg/kg IV): 8.5 h
half-life ([2]; 20 mg/kg p.o.): 7.7 h
half-life [3]: 3.4 h
Helsinki Chronic Pain Index questionnaire [4, 14]: 22 ± 1.75
Helsinki Chronic Pain Index questionnaire [4, 15]: 15 ± 3.23
Helsinki Chronic Pain Index questionnaire [4, 16]: 20 ± 2.87
Helsinki Chronic Pain Index questionnaire [4, 17]: 15 ± 3.06
Helsinki Chronic Pain Index questionnaire [4, 18]: 18 ± 2.98
Helsinki Chronic Pain Index questionnaire [4, 19]: 17 ± 3.68
Helsinki Chronic Pain Index questionnaire [4, 20]: 18 ± 3.03
Helsinki Chronic Pain Index questionnaire [4, 21]: 18 ± 2.8
Helsinki Chronic Pain Index questionnaire [4, 22]: 16 ± 2.42
half-life [5]: 3.4 h
average daily gain compared to the control (calf dehorning): significantly decreases
concentration of substance P compared to the control (calf dehorning): significantly decreases
Liverpool Osteoarthritis in Dogs questionnaire [6, 14]: 27 ± 2.85
Liverpool Osteoarthritis in Dogs questionnaire [6, 15]: 24 ± 2.26
Liverpool Osteoarthritis in Dogs questionnaire [6, 16]: 22 ± 2.35
Liverpool Osteoarthritis in Dogs questionnaire [6, 17]: 23 ± 3.15
Liverpool Osteoarthritis in Dogs questionnaire [6, 18]: 22 ± 3.56
Liverpool Osteoarthritis in Dogs questionnaire [6, 19]: 26 ± 3.15
Liverpool Osteoarthritis in Dogs questionnaire [6, 20]: 26 ± 2.86
Liverpool Osteoarthritis in Dogs questionnaire [6, 21]: 23 ± 2.67
Liverpool Osteoarthritis in Dogs questionnaire [6, 22]: 20 ± 2.35
Subjective Clinical Evaluation System, global observations [7, 14]: 9 ± 0.86
Subjective Clinical Evaluation System, global observations [7, 18]: 4 ± 1.02
Subjective Clinical Evaluation System, global observations [7, 22]: 6 ± 0.73
Result for the pain treatment (different pain assessment questionnaires) [7]: significantly favorable
antihyperalgesic effect (neuropathic pain; gabapentin 17.8 mg/Kg subcutaneously): 55%

CC(=O)Oc1ccccc1C(=O)O [acetylsalicylic acid]
toxic dose (cats [8]): 80-120 mg/Kg/24 h
dose at which vomiting and gastric ulcers have been described (dogs [9]; intake for 1 week): greater than 50 mg/kg/24 h
dose at which vomiting and gastric ulcers have been described (dogs [9]; intake for 4 weeks): > 100 mg/kg/24 h
bound to plasma proteins (plasma proteins): 90%

CNCCC(Oc1ccc(C(F)(F)F)cc1)c1ccccc1 (centres unmarked) [Fluoxetine]
Helsinki Chronic Pain Index questionnaire [4, 23]: 21.5 ± 2.43
Helsinki Chronic Pain Index questionnaire [4, 24]: 20.5 ± 3.66
Helsinki Chronic Pain Index questionnaire [4, 25]: 20 ± 3.1
Helsinki Chronic Pain Index questionnaire [4, 26]: 15.5 ± 3.1
Helsinki Chronic Pain Index questionnaire [4, 27]: 15.5 ± 2.56
Helsinki Chronic Pain Index questionnaire [4, 28]: 15 ± 1.54
Helsinki Chronic Pain Index questionnaire [4, 29]: 14 ± 2.35
Helsinki Chronic Pain Index questionnaire [4, 30]: 13.5 ± 1.55
Helsinki Chronic Pain Index questionnaire [4, 31]: 13.5 ± 1.41
Liverpool Osteoarthritis in Dogs questionnaire [6, 23]: 26 ± 2.2
Liverpool Osteoarthritis in Dogs questionnaire [6, 24]: 23.5 ± 5.4
Liverpool Osteoarthritis in Dogs questionnaire [6, 25]: 26 ± 5.19
Liverpool Osteoarthritis in Dogs questionnaire [6, 26]: 22.5 ± 4.52
Liverpool Osteoarthritis in Dogs questionnaire [6, 27]: 22.5 ± 4.38
Liverpool Osteoarthritis in Dogs questionnaire [6, 28]: 23 ± 2.95
Liverpool Osteoarthritis in Dogs questionnaire [6, 29]: 23 ± 2.56
Liverpool Osteoarthritis in Dogs questionnaire [6, 30]: 22.5 ± 1.95
Liverpool Osteoarthritis in Dogs questionnaire [6, 31]: 20.5 ± 1.35
Subjective Clinical Evaluation System, global observations [7, 23]: 8.5 ± 0.51
Subjective Clinical Evaluation System, global observations [7, 27]: 8.5 ± 1.19
Subjective Clinical Evaluation System, global observations [7, 31]: 8 ± 1.79
Result for the pain treatment (different pain assessment questionnaires) [7]: significantly favorable

CC(=O)Nc1ccc(O)cc1 [paracetamol]
toxic dose (cats [10]): 50 mg/kg
toxic dose (dogs [11]): 150 mg/kg

CCCCC1C(=O)N(c2ccccc2)N(c2ccccc2)C1=O [phenylbutazone]
adverse effects of claudication treatment (horses): gastric ulcers and necrotizing colitis with protein loss

CCC1(c2ccccc2)C(=O)NC(=O)NC1=O [Phenobarbital, phenobarbital]
Seizure number per month prior to the study [1, 32]: 3 and 11 and 13 and 2 (3×) and 8 and 7 and 10 and 1
Clinical adverse effects observed [1, 32]: NONE (6×) and HYPER- and LIGHT SEDATION (3×)
Seizure number per month after the study [1, 32]: 0 (5×) and 4 and 1 (4×)

— patent publication US10610498B2, “Oral veterinary composition with gabapentin” (priority 2015, dated 2020)
